From PubChem BioAssay AID256 (DTP/NCI, 2004) come the findings set out here.

Structures are written as SMILES. Inconclusive results and toxic doses are left out.

The subject of the experiment is CD2F1 mice, L1210 leukemia ip, survival T/C. The experiment in a line: NCI In Vivo Anticancer Drug Screen. Data for tumor model L1210 Leukemia (intraperitoneal) in CD2F1 (CDF1) mice. The conditions noted are these: higher = longer survival. In outline: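 Read-out first: treated-group measurement over vehicle-control measurement, expressed as a ratio. Animals bore a transplanted tumor line and were dosed with compound or vehicle.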

Setting [1] is: endpoint: mean survival time, dose: 100.0 mg/kg/injection, schedule: Q01DX001 (ip), vehicle: saline with Tween-80.
Setting [2] is: endpoint: mean survival time, dose: 100.0 mg/kg/injection, schedule: Q01DX009 (ip), vehicle: saline with Tween-80.
Where [3] appears, read: endpoint: mean survival time, dose: 200.0 mg/kg/injection, schedule: Q01DX001 (ip), vehicle: saline with Tween-80.
[4] abbreviates: endpoint: mean survival time, dose: 200.0 mg/kg/injection, schedule: Q01DX009 (ip), vehicle: saline with Tween-80.
[5] abbreviates: endpoint: mean survival time, dose: 400.0 mg/kg/injection, schedule: Q01DX001 (ip), vehicle: saline with Tween-80.
Setting [6] is: endpoint: mean survival time, dose: 400.0 mg/kg/injection, schedule: Q01DX009 (ip), vehicle: saline with Tween-80.
Setting [7] is: endpoint: mean survival time, dose: 100.0 mg/kg/injection, schedule: Q04DX003 (ip), vehicle: saline with Tween-80.
Where [8] appears, read: endpoint: mean survival time, dose: 200.0 mg/kg/injection, schedule: Q04DX003 (ip), vehicle: saline with Tween-80.
The mark [9] stands for this setting: endpoint: mean survival time, dose: 400.0 mg/kg/injection, schedule: Q04DX003 (ip), vehicle: saline with Tween-80.
The mark [10] stands for this setting: endpoint: mean survival time, dose: 50.0 mg/kg/injection, schedule: Q01DX009 (ip), vehicle: saline.
The mark [11] stands for this setting: endpoint: mean survival time, dose: 100.0 mg/kg/injection, schedule: Q01DX009 (ip), vehicle: saline.
Setting [12] is: endpoint: mean survival time, dose: 100.0 mg/kg/injection, schedule: Q04DX002 (ip), vehicle: saline with Tween-80.
The mark [13] stands for this setting: endpoint: mean survival time, dose: 200.0 mg/kg/injection, schedule: Q04DX002 (ip), vehicle: saline with Tween-80.
The mark [14] stands for this setting: endpoint: mean survival time, dose: 400.0 mg/kg/injection, schedule: Q04DX002 (ip), vehicle: saline with Tween-80.
[15] abbreviates: endpoint: mean survival time, dose: 50.0 mg/kg/injection, schedule: Q01DX009 (ip), vehicle: saline with Tween-80.
Where [16] appears, read: endpoint: mean survival time, dose: 50.0 mg/kg/injection, schedule: Q04DX002 (ip), vehicle: saline with Tween-80.

On to `CSc1nc(N)c2c3c(N)ncnc3n(C3OC(CO)C(O)C3O)c2n1` (stereo not given), for which the T/C is 97 % of control (endpoint: mean survival time, dose: 25.0 mg/kg/injection, schedule: Q01DX005 (ip), vehicle: distilled water + Tween-80); 91 % of control (endpoint: mean survival time, dose: 50.0 mg/kg/injection, schedule: Q01DX005 (ip), vehicle: distilled water + Tween-80); 91 % of control (endpoint: mean survival time, dose: 100.0 mg/kg/injection, schedule: Q01DX005 (ip), vehicle: distilled water + Tween-80); 97 % of control (endpoint: mean survival time, dose: 200.0 mg/kg/injection, schedule: Q01DX005 (ip), vehicle: distilled water + Tween-80); 101 % of control (endpoint: mean survival time, dose: 400.0 mg/kg/injection, schedule: Q01DX005 (ip), vehicle: distilled water + Tween-80).

`Nc1c(Cl)cccc1Cl` (tested in a mixture with another compound): the T/C by setting is: under setting [1], 89 % of control; under setting [2], 99 % of control; under setting [3], 91 % of control; under setting [4], 98 % of control; under setting [5], 91 % of control; under setting [6], 107 % of control.

Regarding `C=CC1CC(=O)N1Cc1ccccc1` (stereo not given), the T/C runs as follows: under setting [7], 97 % of control; under setting [8], 92 % of control; under setting [9], 92 % of control.

In the case of `CC(C)N1CCC1CO` (stereo not given), the T/C (endpoint: mean survival time, dose: 25.0 mg/kg/injection, schedule: Q01DX009 (ip), vehicle: saline) was 96 % of control; the T/C under setting [10] was 100 % of control; the T/C under setting [11] is 94 % of control.

With `CCCC(C)(COC(N)=O)COC(N)=O`, the T/C by setting is: under setting [7], 96 % of control; under setting [8], 98 % of control; under setting [9], 96 % of control.

Take `Cc1cccc2c1-c1c(C)cccc1CSC2`: the T/C under setting [2] was 95 % of control; the T/C (endpoint: mean survival time, dose: 100.0 mg/kg/injection, schedule: Q04DX003 (ip), vehicle: saline sonified) was 98 % of control; the T/C under setting [4] is 97 % of control; the T/C (endpoint: mean survival time, dose: 200.0 mg/kg/injection, schedule: Q04DX003 (ip), vehicle: saline sonified) was 93 % of control; the T/C under setting [6] is 101 % of control; the T/C (endpoint: mean survival time, dose: 400.0 mg/kg/injection, schedule: Q04DX003 (ip), vehicle: saline sonified) is 93 % of control.

Turning to `Cc1[nH]c2ccccc2c1C(C)(Cc1cc2ccccc2[nH]1)c1ccncc1` (stereo not given), the T/C reads like this: under setting [2], 91 % of control; under setting [4], 100 % of control; under setting [6], 91 % of control.

As for `Brc1ccc([Si](c2ccccc2)(c2ccccc2)c2ccc(Br)cc2)cc1`, the T/C is 102 % of control under setting [7], 108 % of control under setting [8] and 106 % of control under setting [9].

For `O=C1C(C2CC3c4[nH]c5ccccc5c4CCN3C2=O)CC2c3[nH]c4ccccc4c3CCN12` (stereo not given), the T/C runs as follows: under setting [12], 93 % of control; under setting [13], 93 % of control; under setting [14], 93 % of control.

Consider `N#CC[CH2][Sn]([I])([c]1ccccc1)[c]1ccccc1`, for which the T/C is 97 % of control (endpoint: mean survival time, dose: 6.25 mg/kg/injection, schedule: Q04DX003 (ip), vehicle: saline with Tween-80) and 97 % of control (endpoint: mean survival time, dose: 12.5 mg/kg/injection, schedule: Q04DX003 (ip), vehicle: saline with Tween-80).

With `CCCNC(=O)Oc1ccc(Br)cc1Br`, the T/C is, setting by setting: (endpoint: mean survival time, dose: 50.0 mg/kg/injection, schedule: Q01DX009 (ip), vehicle: Klucel (hydroxypropylcellulose) (HPC)) 108 % of control; (endpoint: mean survival time, dose: 100.0 mg/kg/injection, schedule: Q01DX009 (ip), vehicle: Klucel (hydroxypropylcellulose) (HPC)) 97 % of control; (endpoint: mean survival time, dose: 200.0 mg/kg/injection, schedule: Q01DX009 (ip), vehicle: Klucel (hydroxypropylcellulose) (HPC)) 94 % of control.

Regarding `Cn1c(=O)[nH]c2c(nc(-c3ccc(Cl)cc3)n2CCc2ccccc2)c1=O`, the T/C is, setting by setting: (endpoint: mean survival time, dose: 7.8 mg/kg/injection, schedule: Q01DX005 (ip), vehicle: other) 100 % of control; (endpoint: mean survival time, dose: 15.6 mg/kg/injection, schedule: Q01DX005 (ip), vehicle: other) 95 % of control; (endpoint: mean survival time, dose: 31.3 mg/kg/injection, schedule: Q01DX005 (ip), vehicle: other) 95 % of control; (endpoint: mean survival time, dose: 62.5 mg/kg/injection, schedule: Q01DX005 (ip), vehicle: other) 95 % of control; (endpoint: mean survival time, dose: 125.0 mg/kg/injection, schedule: Q01DX005 (ip), vehicle: other) 95 % of control.

Consider `Nc1c(C(=O)NOCc2ccccc2)ncn1C1CCCC1`, for which the T/C (endpoint: mean survival time, dose: 50.0 mg/kg/injection, schedule: Q01DX001 (ip), vehicle: other) is 104 % of control and the T/C (endpoint: mean survival time, dose: 100.0 mg/kg/injection, schedule: Q01DX001 (ip), vehicle: other) was 102 % of control.

`O=C(NC1CCC(CC2CCCCC2)CC1)C(Cl)Cl` (stereo not given): the T/C runs as follows: under setting [12], 101 % of control; under setting [13], 101 % of control; under setting [14], 89 % of control.

Take `CC1=CCC2C(=O)NC(=O)C2C1` (stereo not given): the T/C under setting [15] is 96 % of control, the T/C under setting [2] is 104 % of control and the T/C under setting [4] is 104 % of control.

For the compound `CC1CC2(C)C(CC1=O)CC(C)C1C2CCC2(C)C1CCC2(C)O` (stereo not given), the T/C under setting [7] was 102 % of control, the T/C under setting [8] is 102 % of control and the T/C under setting [9] is 100 % of control.

`O=CCC1CCCCC1`: the T/C under setting [15] was 105 % of control, the T/C under setting [2] was 94 % of control and the T/C under setting [4] is 102 % of control.

With `CC(C)CCC(=O)/C=C\c1ccccc1`, the T/C under setting [16] is 104 % of control, the T/C under setting [12] is 96 % of control, the T/C under setting [13] is 86 % of control and the T/C under setting [14] is 86 % of control.

Turning to `COc1ccc2oc(-c3ccc(Cl)cc3)c(N3CCN(C)CC3)c2c1`, the T/C by setting is: (endpoint: median survival time, dose: 15.0 mg/kg/injection, schedule: Q01DX005 (ip), vehicle: saline) 104 % of control; (endpoint: median survival time, dose: 30.0 mg/kg/injection, schedule: Q01DX005 (ip), vehicle: saline) 103 % of control; (endpoint: median survival time, dose: 60.0 mg/kg/injection, schedule: Q01DX005 (ip), vehicle: saline) 100 % of control; (endpoint: median survival time, dose: 120.0 mg/kg/injection, schedule: Q01DX005 (ip), vehicle: saline) 107 % of control; (endpoint: median survival time, dose: 240.0 mg/kg/injection, schedule: Q01DX005 (ip), vehicle: saline) 119 % of control.

With `CCOC(=O)Nc1cc(N)c2[nH]cnc2n1`, the T/C (endpoint: mean survival time, dose: 100.0 mg/kg/injection, schedule: Q01DX001 (ip), vehicle: carboxymethylcellulose (CMC)) was 96 % of control.

As for `COc1cc(Cl)ccc1NC(=O)OCCOc1ccc(Cl)cc1`, the T/C is 91 % of control under setting [15], 88 % of control under setting [2] and 91 % of control under setting [4].

Consider `O=C(c1ccc(O)cc1O)c1ccc(O)cc1O`, for which the T/C is, setting by setting: under setting [10], 104 % of control; under setting [11], 96 % of control; (endpoint: mean survival time, dose: 200.0 mg/kg/injection, schedule: Q01DX009 (ip), vehicle: saline) 93 % of control.

With `Nc1cc(=S)c2ncn(C3OC(CO)C(O)C3O)c2[nH]1` (stereo not given), the T/C is 89 % of control (endpoint: mean survival time, dose: 6.25 mg/kg/injection, schedule: Q01DX005 (ip), vehicle: water); 101 % of control (endpoint: mean survival time, dose: 12.5 mg/kg/injection, schedule: Q01DX005 (ip), vehicle: water); 89 % of control (endpoint: mean survival time, dose: 25.0 mg/kg/injection, schedule: Q01DX005 (ip), vehicle: water); 96 % of control (endpoint: mean survival time, dose: 50.0 mg/kg/injection, schedule: Q01DX005 (ip), vehicle: water); 100 % of control under setting [1]; 93 % of control (endpoint: mean survival time, dose: 100.0 mg/kg/injection, schedule: Q01DX005 (ip), vehicle: water). Besides, the T/C runs as follows: under setting [3], 91 % of control; under setting [5], 100 % of control.

With `COc1ccc(C(N)=O)cc1N=NN(C)C`, the T/C by setting is: (endpoint: mean survival time, dose: 37.5 mg/kg/injection, schedule: Q01DX009 (ip), vehicle: Klucel (hydroxypropylcellulose) (HPC)) 158 % of control; (endpoint: mean survival time, dose: 75.0 mg/kg/injection, schedule: Q01DX009 (ip), vehicle: Klucel (hydroxypropylcellulose) (HPC)) 109 % of control.

With `NC(=O)c1nc(Br)n(C2OC(CO)C(O)C2O)c1N` (stereo not given), the T/C is 104 % of control (endpoint: median survival time, dose: 44.0 mg/kg/injection, schedule: Q01DX005 (ip), vehicle: saline); 101 % of control (endpoint: median survival time, dose: 88.0 mg/kg/injection, schedule: Q01DX005 (ip), vehicle: saline); 102 % of control (endpoint: median survival time, dose: 175.9 mg/kg/injection, schedule: Q01DX005 (ip), vehicle: saline).

As for `O=C1c2ccc([N+](=O)[O-])cc2-c2c1cccc2[N+](=O)[O-]`, the T/C was 95 % of control (endpoint: mean survival time, dose: 25.0 mg/kg/injection, schedule: Q04DX002 (ip), vehicle: saline with Tween-80) and 87 % of control under setting [16].
